These results are taken from ChEMBL document CHEMBL1641476, “Tetrahydroquinoline derivatives as opioid receptor antagonists” (Bioorg Med Chem Lett, 2011).

Data set [1] concerns the target Kappa-type opioid receptor (Homo sapiens, UniProt P41145). Description: Antagonist activity at human kappa opioid receptor expressed in CHO cells assessed as [35S]GTPgammaS binding by SPA. It is filed as functional, cell-based.
For data set [2], the target named is Mu-type opioid receptor (Homo sapiens, UniProt P35372). The experiment in a line: Antagonist activity at human mu opioid receptor expressed in CHO cells assessed as [35S]GTPgammaS binding by SPA. It is filed as functional, cell-based.
Data set [3] has as its target Delta-type opioid receptor (Homo sapiens, UniProt P41143). The experiment in a line: Antagonist activity at human delta opioid receptor expressed in CHO cells assessed as [35S]GTPgammaS binding by SPA. In kind it is functional, cell-based.
Data set [4] in a line: Volume of distribution at steady state in iv dosed Long-Evans rat. The settings on record: in vivo, read-out: Vdss. It is filed as ADME, organism-based.
Data set [5] in a line: Half life in iv dosed Long-Evans rat. The settings on record: in vivo. In kind it is ADME, organism-based.
The nature of data set [6]: Oral bioavailability in Long-Evans rat. In kind it is ADME, organism-based. The settings on record: in vivo.
A short description of data set [7]: Clearance in iv dosed Long-Evans rat. In kind it is ADME, organism-based. The following applies: in vivo.
In data set [8] the test system is Rattus norvegicus. The experiment in a line: Ratio of drug level in po dosed Long-Evans rat. It is filed as ADME, organism-based. The following applies: in vivo.

Sequence of Delta-type opioid receptor (P41143 whole entry): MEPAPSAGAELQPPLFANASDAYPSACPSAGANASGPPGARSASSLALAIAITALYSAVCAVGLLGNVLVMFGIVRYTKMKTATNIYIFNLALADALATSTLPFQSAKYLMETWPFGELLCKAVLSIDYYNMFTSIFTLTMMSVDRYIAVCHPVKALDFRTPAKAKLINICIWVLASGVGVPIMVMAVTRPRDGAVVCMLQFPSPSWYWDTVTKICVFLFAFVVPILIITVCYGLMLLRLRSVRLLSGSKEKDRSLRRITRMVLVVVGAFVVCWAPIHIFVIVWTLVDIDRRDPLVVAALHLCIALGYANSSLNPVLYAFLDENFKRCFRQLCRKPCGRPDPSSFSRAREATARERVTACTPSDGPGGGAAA
Sequence of Mu-type opioid receptor (P35372 whole entry): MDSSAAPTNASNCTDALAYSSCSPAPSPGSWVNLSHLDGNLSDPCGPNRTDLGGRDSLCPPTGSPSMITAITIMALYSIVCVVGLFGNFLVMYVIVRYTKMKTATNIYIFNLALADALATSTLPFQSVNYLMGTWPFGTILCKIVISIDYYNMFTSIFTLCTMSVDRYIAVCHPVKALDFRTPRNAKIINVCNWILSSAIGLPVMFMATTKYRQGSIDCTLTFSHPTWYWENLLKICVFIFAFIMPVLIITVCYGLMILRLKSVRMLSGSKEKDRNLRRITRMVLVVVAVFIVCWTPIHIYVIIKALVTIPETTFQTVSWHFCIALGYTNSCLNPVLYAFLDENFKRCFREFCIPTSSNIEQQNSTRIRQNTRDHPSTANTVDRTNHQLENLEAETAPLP
Sequence of Kappa-type opioid receptor (P41145 whole entry): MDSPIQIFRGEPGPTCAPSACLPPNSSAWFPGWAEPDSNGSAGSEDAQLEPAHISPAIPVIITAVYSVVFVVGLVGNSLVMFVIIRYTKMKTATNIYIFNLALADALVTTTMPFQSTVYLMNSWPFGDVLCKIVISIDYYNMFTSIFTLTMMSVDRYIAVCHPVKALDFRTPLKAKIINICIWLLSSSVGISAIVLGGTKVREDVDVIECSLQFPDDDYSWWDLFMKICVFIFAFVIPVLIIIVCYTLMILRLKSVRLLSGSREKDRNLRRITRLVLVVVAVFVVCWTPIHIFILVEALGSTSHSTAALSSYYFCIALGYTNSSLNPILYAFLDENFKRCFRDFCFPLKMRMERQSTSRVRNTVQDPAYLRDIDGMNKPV

Take `Cc1cc(CNC2Cc3ccccc3C2)ccc1N1CCCc2cc(C(N)=O)ccc21`: the inhibition constant Ki in data set [1] is 20 nM; in data set [2], 1.58 nM; in data set [3] it was 12.6 nM.
On to `Cc1cc(N2CCCc3cc(C(N)=O)ccc32)ccc1CNC1Cc2ccccc2C1`, for which the Ki is 158 nM in data set [1], 7.94 nM in data set [2] and 158 nM in data set [3].
In the case of `Cc1cc(N2CCCc3cc(C(N)=O)ccc32)ccc1CNCCC1=CCCCC1`, the figures for the Ki in data set [1], in data set [2] and in data set [3] were 631 nM, 100 nM and 501 nM, respectively.
For `NC(=O)c1ccc2c(c1)CCCN2c1cccc(C(=O)NCCC2=CCCCC2)c1`, the Ki was above 3980 nM in data set [1], 2000 nM in data set [2] and 1580 nM in data set [3].
For `Cc1cc(CNCCC2=CCCCC2)ccc1N1CCCc2cc(C(N)=O)ccc21` the same measures were 200 nM, 12.6 nM and 100 nM.
As to `NC(=O)c1ccc2c(c1)CCCN2c1ccc(CNCC2CCCCC2)cc1`, the results for the Ki in data set [1], in data set [2] and in data set [3] were 316 nM, 39.8 nM and 398 nM, respectively.
`NC(=O)c1ccc2c(c1)CCCN2c1cc(F)c(CNC2Cc3ccccc3C2)c(F)c1`: the Ki in data set [1] was 631 nM; in data set [2], 25.1 nM; in data set [3], 316 nM.
Take `CC(C)CCNCc1ccc(N2CCCc3cc(C(N)=O)ccc32)cc1`: the Ki in data set [1] was 501 nM; in data set [2] it was 79.4 nM; in data set [3], 316 nM.
In the case of `NC(=O)c1ccc2c(c1)CCCN2c1ccc(CNCCC2=CCCCC2)cc1`, the Vd in data set [4] amounted to 1.5 L/kg. In data set [5], this molecule had a half-life of 5.34 h. Moreover, the inhibition constant (Ki) is 316 nM in data set [1], 25.1 nM in data set [2] and 158 nM in data set [3]. In data set [6], this molecule gave a bioavailability of 33%. This molecule also registered a clearance in data set [7] of 26.5 mL/min/kg. Moreover, the Ratio in data set [8] is given as 0.1.
On to `NC(=O)c1ccc2c(c1)CCCN2c1ccc(CNC2Cc3ccccc3C2)cc1`, for which the Ki in data set [1] was 25.1 nM; in data set [2], 5.01 nM; in data set [3], 39.8 nM.
Turning to `CC(C)CNCc1ccc(N2CCCc3cc(C(N)=O)ccc32)cc1`, the Ki was 1260 nM in data set [1], 631 nM in data set [2] and above 3980 nM in data set [3].
For `NC(=O)c1ccc2c(c1)CCCN2c1cccc(CNCCC2=CCCCC2)c1` the same measures were 1260 nM, 50.1 nM and 200 nM.
The corresponding values for `NC(=O)c1ccc2c(c1)CCCN2c1ccc(CNCc2cccc(F)c2)cc1` are 631 nM, 100 nM and 398 nM.
As for `NC(=O)c1ccc2c(c1)CCCN2c1ccc(CNC2Cc3ccc(F)cc3C2)cc1` (stereo not drawn), the values for the inhibitory constant (Ki) in data set [1], in data set [2] and in data set [3] were 126 nM, 12.6 nM and 79.4 nM, respectively.
With `NC(=O)c1ccc2c(c1)CCCN2c1ccc(CNC2Cc3ccccc3C2)c(Cl)c1`, the inhibition constant Ki in data set [1] was 200 nM; in data set [2], 15.8 nM; in data set [3] it was 100 nM.
For `CC1(C)CCC(NCc2ccc(N3CCCc4cc(C(N)=O)ccc43)cc2)CC1` the same measures were 63.1 nM, 10 nM and 50.1 nM.
The corresponding values for `CCCCCNCc1ccc(N2CCCc3cc(C(N)=O)ccc32)cc1` are 1000 nM, 50.1 nM and 251 nM.
The corresponding values for `NC(=O)c1ccc2c(c1)CCCN2c1ccc(CNC2Cc3ccccc3C2)c(C(F)(F)F)c1` are 631 nM, 50.1 nM and 63.1 nM.
`NC(=O)c1ccc2c(c1)CCCN2c1ccc(CNCCc2cccc(F)c2)cc1`: the Ki in data set [1] is 794 nM; in data set [2] it was 31.6 nM; in data set [3], 251 nM.
As for `NC(=O)c1ccc2c(c1)CCCN2c1ccc(CNC2CCN(C3CCOCC3)CC2)cc1`, the inhibition constant Ki in data set [1], in data set [2] and in data set [3] was above 3980 nM each time.
For `NC(=O)c1ccc2c(c1)CCCN2c1ccc(CNCCC2CCOCC2)cc1`, the Ki is 251 nM in data set [1], 126 nM in data set [2] and 316 nM in data set [3].
The corresponding values for `CC(C)(C)CCNCc1ccc(N2CCCc3cc(C(N)=O)ccc32)cc1` are 251 nM, 50.1 nM and 316 nM.
Regarding `C1=C(CCNCc2ccc(N3CCCc4ccccc43)cc2)CCCC1`, the values for the Ki in data set [1], in data set [2] and in data set [3] were above 3980 nM, 398 nM and above 3980 nM, respectively.
For `NC(=O)c1ccc2c(c1)CCCN2c1ccc(CNCCc2cccs2)cc1`, the Ki is 631 nM in data set [1], 25.1 nM in data set [2] and 316 nM in data set [3].
In the case of `O=C(O)c1ccc2c(c1)CCCN2c1ccc(CNCCC2=CCCCC2)cc1`, the results for the Ki in data set [1], in data set [2] and in data set [3] were above 3980 nM, above 3160 nM and above 3980 nM, respectively.
As for `NC(=O)c1ccc2c(c1)CCCN2c1ccc(CNC2Cc3ccccc3C2)c(F)c1`, the inhibition constant Ki in data set [1] is 200 nM; in data set [2] it was 7.94 nM; in data set [3] it was 100 nM.
